Here are results for 2 compounds from patent publication US20250114487A1, “COMBINATION TREATMENT OF TUMORS” (The University of Chicago, priority 2023, published 2025).

The structures appear in SMILES notation. Like-named read-outs stand apart in the source and are kept apart here.

Assay [1] concerns ESR1, Rad51, BRCA1, BRCA2 mRNA. Description: qPCR of mRNA expression of DNA repair factors in QGP-1 cells. The class given is cell-based. The settings on record: QGP-1 cells treated with Fulvestrant for 36 hours or 72 hours.
Description: For in vitro experiments, various neuroendocrine tumor (NET) cell lines were used from different primary tumor origins. Specifically, pancreatic cells (QGP-1), small bowel cells (GOT-1), and lung cells (NCI-H727) were used. Cells were supplemented with estrogen (E2)-free or E2-supplemented media to determine the effects of E2 on cell proliferation and DNA repair factors. […] Knockdown of ESR1 was achieved using 30 uM siRNA. qPCR was performed to verify knockdown by quantifying ESR1 mRNA levels.
QGP-1 cells were growth in media with standard fetal bovine serum (WT), E2-free media for 7 days, or E-2 free media for 2 days followed by growth in E2 media containing 1 uM E2 additive for 24 hours. mRNA expression of DNA repair factors was evaluated by qPCR.
For assay [2], the system named is QGP-1 cells. Description: In vitro radiosensitization, QGP-1 cells. The class given is cell-based. The settings on record: 3.5 days following 100 nM Fulvestrant + IR (4 Gy) vs IR alone. From the text: (§1) For in vitro experiments, various neuroendocrine tumor (NET) cell lines were used from different primary tumor origins. Specifically, pancreatic cells (QGP-1), small bowel cells (GOT-1), and lung cells (NCI-H727) were used. Cells were supplemented with estrogen (E2)-free or E2-supplemented media to determine the effects of E2 on cell proliferation and DNA repair factors. ESR1 was inhibited by si-RNA mediated knockdown of ESR1 or by administration of the selective estrogen receptor degrader Fulvestrant. Knockdown of ESR1 was achieved using […] siRNA. qPCR was performed to verify knockdown by quantifying ESR1 mRNA levels. For administration of Fulvestrant, 100 nm Fulvestrant was used.
(§2) Radiation (IR) was administered using a dose of 4 Gy using external beam radiation therapy (EBRT). Radiation was administered 24 hours following ESR1 inhibition.
(§3) Cells were treated with […] siRNA against ESR1 followed by irradiation (4 Gy dose), or treated with Fulvestrant followed by irradiation (4 Gy dose). […] Without wishing to be bound by theory, it is possible that estrogen inhibition radiosensitizes cells by decreasing expression of genes involved in DNA repair pathways. This was evaluated by measuring mRNA levels of DNA repair factors Rad51, BRCA1, and BRCA2 following treatment of QGP-1 cells with Fulvestrant for 36 hours or 72 hours.

The next assay deals with GOT-1 cells. Kind of assay: In vitro radiosensitization, GOT-1 cells. The class given is cell-based.
Text: as §1, §2, §3

For assay [3], the system named is QGP-1 cells. Description: Cell counting after irradiation with Fulvestrant and PARPi Talazoparib, QGP-1 cells. The class given is cell-based. The settings on record: fulvestrant in combination with irradiation vs fulvestrant alone, 3 days after irradiation.
Text: Total number of cells were counted 3 days after irradiation.
In a further assay the test system is QGP-1 tumors. Description: In vivo radiosensitization, mouse xenograft model with QGP-1 tumors. The settings on record: for cumulative survival: IR (4 Gy) + 5 mg Fulvestrant subcutaneously compared to irradiation alone and Fulvestrant alone; for tumor volume size: compared to control groups. As to the method:
For in vivo experiments, a mouse xenograft model created using QGP-1 cells was used.
as §2
Radiosensitization was subsequently evaluated in vivo using a mouse model harboring QGP-1 tumors. Four different treatment groups were used. One group was a control that received neither irradiation nor fulvestrant. The second group received fulvestrant alone (5 mg, subcutaneous). The third group received irradiation alone. The fourth group received irradiation and fulvestrant (5 mg. subcutaneous). Tumor volume and overall survival was evaluated. Tumor volume was evaluated at day 7, day 15, day 24, and day 35 post treatment. […] Control mice were euthanized between day 15 and day 24 due to deteriorating health. At day 24 and day 35, no control mice were surviving and as such results presented therein only show treatment with fulvestrant, treatment with irradiation, or treatment with fulvestrant and irradiation.

Assay [4] concerns ER36 or ER56. Description: Western blot of ERα isoform levels, NCI-H727 cells. The class given is cell-based. Details: dose or concentration left out as unconfirmed. The settings on record: fulvestrant. How it is done: (§4) Western blot analysis was conducted in various NET cell lines to investigate expression levels of various ERα isoforms. The breast cancer cell line MCF7 was used as a positive control. […] In contrast, the most common isoform of ERα, ER66 kDa, was not present in QGP1 cells, as compared to MCF7. Expression of ER36 was further verified in NCI-H727 cells (FIG. 8B). Expression of ER56 was further verified in NCI-H727 cells and BON1 cells (FIG. 8C). […] Without wishing to be bound by theory, it is possible that this lack of effect of fulvestrant is because ER36 and ER 56 lack the […] binding region to which fulvestrant binds. […] (FIG. 8E).
On the technique in general: In western blotting, separated proteins are transferred to a membrane and probed.

Assay [5] relates to ER36 or ER56. Description: Western blot of ERα isoform levels, QGP1 cells. The class given is cell-based. The settings on record: 100 mM fulvestrant. How it is done:
as §4

A further assay concerns SSTR2. Kind of assay: Western blot of SSTR2 levels, SSTR2 positive QGP1 cells. The settings on record: SSTR2 positive QGP1 cells treated with fulvestrant or fulvestrant and irradiation. The class given is cell-based.
The next assay relates to QGP1 cells. Description: QGP1 cell number after irradiation in the presence or absence of estrogen. The settings on record: 3.5 days after irradiation (4 Gy). The assay is classed as cell-based. As to the method: Additional experiments were conducted to further evaluated the mechanism behind fulvestrant-induced radiosensitization. QGP1 cells were cultured in the presence or absence of estrogen and treated with fulvestrant, irradiation, or fulvestrant and irradiation. The number of cells were evaluated 3.5 days after irradiation (4 Gy). […] This is a strong indication that the effect of fulvestrant is off-target and not through the estrogen receptor pathway. RNA sequencing experiments were conducted to further evaluate the potential mechanism behind radiosensitization.

Assay [6] deals with QGP1.SSTR2 cells. Description: Additional clonogenic assays, QGP1.SSTR2 cells. The assay is classed as cell-based. The settings on record: single agent (5.6 μCi Lu-177 DOTA-TATE or fulvestrant) compared to untreated cells. How it is done: Additional clonogenic assays and in-vivo experiments were conducted using Lu-177 DOTA-TATE in combination with Fulvestrant. […] Results are quantified in FIG. 12B. Treatment with Lu-177-DOTA-TATE alone decreased the number of colonies compared to untreated cells and cells treated with fulvestrant alone. Treatment with fulvestrant alone decreased the number of colonies compared to untreated cells.

In the next assay the test system is QGP1.SSTR2 mice. Description: In vivo PRRT sensitization, xenograft mice (QGP1.SSTR2).
The subject of assay [7] is QGP1.SSTR2 cells. The settings on record: 5.6 μCi dose of Lu-177 DOTA-TATE, alone or with 1 uM ATRA or 100 nM Fulvestrant.
Description: For in vitro studies, QGP1 cells (pancreatic NET cells) were engineered to express luciferase (QGP1.luc) or to express luciferase and overexpress the somatostatin receptor 2 (SSTR2) (QGP1.SSTR2.luc). Cells were treated with PRRT alone, or PRRT in combination with estrogen receptor inhibition or all-trans-retinoic acid (ATRA).
In assay [8] the test system is QGP1.SSTR2 cells or QGP1 cells not expressing SSTR2.
Description: Cells were treated with PRRT alone, or PRRT in combination with estrogen receptor inhibition or all-trans-retinoic acid (ATRA).

Description for QGP1.SSTR2 mice: In vivo studies were conducted in mice. […] Tumor volume and survival was assessed up to 100 days post injection.

Turning to `C[C@]12CC[C@@H]3c4ccc(O)cc4C[C@@H](CCCCCCCCC[S+]([O-])CCCC(F)(F)C(F)(F)F)[C@H]3[C@@H]1CC[C@@H]2O` (some centres unmarked) [Fulvestrant], in assay [1], the “mRNA levels of Rad51, BRCA1, BRCA2” value is listed as “lower”. In addition, the total cell growth result in the assay on QGP-1 cells [2] and in the assay with GOT-1 cells (3.5 days following 100 nM Fulvestrant + irradiation (4 Gy) vs irradiation alone) was “significant decrease” throughout. In the assay with GOT-1 cells (5 days following 100 nM Fulvestrant + IR (4 Gy) vs IR alone), the total cell entry was “significant decrease”. Moreover, the cell death result in the assay on QGP-1 cells [3] is reported as “increases cell death”. Also, the figures for the cumulative survival result in the assay with QGP-1 tumors and in the assay with QGP-1 tumors (listed as Fulevestrant) were “significantly improved survival” and “significantly improved cumulative survival”, respectively. Further, the “survival, up to” value in the assay on QGP-1 tumors (combination of irradiation (4 Gy) and fulvestrant (5 mg, subcutaneous)) is on record as “up to 70 days”. Moreover, the tumor volume result in the assay with QGP-1 tumors (day 35 post treatment, irradiation and fulvestrant compared to irradiation alone) is given as “significant decrease”. Also, the tumor volume size entry with QGP-1 tumors (fulvestrant alone (5 mg, subcutaneous)) is listed as “decreased”; in the assay with QGP-1 tumors (irradiation plus fulvestrant (5 mg, subcutaneous)), “decreased”. The “survival, until day” value in the assay with QGP-1 tumors (fulvestrant alone (5 mg, subcutaneous), untreated control not past day 18) was ≤ 28 days. Moreover, the survival result in the assay on QGP-1 tumors (fulvestrant alone vs untreated control mice) is recorded as “significantly longer survival”; in the assay on QGP1.SSTR2 mice (compared to control mice), “did not show significant differences”. Besides, the “ER36 or ER56 levels” value in the assay on ER36 or ER56 [4] and in the assay on ER36 or ER56 [5] was “not found to influence” in each case. Also, the SSTR2 levels result in the assay with SSTR2 is “did not increase”. For the same compound, in the assay with QGP1 cells, the “radiosensitization (number of cells)” value was “radiosensitizes cells regardless of whether estrogen was present or not present”. In the assay with QGP1.SSTR2 cells [6], the number of colonies result is reported as “decreased”.
Consider `C[C@@H](O)[C@H](NC(=O)[C@@H]1CSSC[C@H](NC(=O)[C@@H](Cc2ccccc2)NC(=O)CN2CCN(CC(=O)[O-])CCN(CC(=O)[O-])CCN(CC(=O)[O-])CC2)C(=O)N[C@@H](Cc2ccc(O)cc2)C(=O)N[C@H](Cc2c[nH]c3ccccc23)C(=O)N[C@@H](CCCCN)C(=O)N[C@@H]([C@@H](C)O)C(=O)N1)C(=O)O.[177Lu+3]` [Lu-177 DOTA-TATE, lutetium Lu-177 DOTA-TATE], for which the number of colonies entry in the assay with QGP1.SSTR2 cells [6] is given as “decreased”. For the same compound, the “mice surviving at day 100” value in the assay on QGP1.SSTR2 mice (Lu-177-DOTA-TATE alone) is given as “less than 25%”. In the assay with QGP1.SSTR2 mice (compared to control mice and mice treated with fulvestrant), the survival entry was “significantly longer”. In addition, the tumor volume entry in the assay with QGP1.SSTR2 mice (day 7 and day 21 post injection, compared to control mice and mice treated with fulvestrant alone) was “significantly smaller”. For the same compound, in the assay with QGP1.SSTR2 cells [7], the colony count result is “about 40 cells”. In addition, the cell count result in assay [8] (5.6 μCi Lu-177 DOTA-TATE alone, FIG. 10B) is given as “about 150”; in [8] (14.6 μCi Lu-177 DOTA-TATE alone, FIG. 10C) it was “less than 40”.
